Test results reported in PubChem BioAssay (NCI).
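Cells were grown in 96-well plates and exposed to each compound for 48 hours at five concentrations; endpoints were interpolated linearly between bracketing concentrations, or set to the highest concentration if not reached. The concentration for 50% growth inhibition is given as GI50. TGI denotes the concentration required for complete inhibition of growth.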

Assays:
Assay in all cases: NCI tumour cell line growth inhibition, 48 h
M14 melanoma = system: M14 melanoma
NCI-H226 lung = system: NCI-H226 lung
BT-549 breast = system: BT-549 breast
KM12 colon = system: KM12 colon
SN12C renal = system: SN12C renal
MDA-MB-231 breast = system: MDA-MB-231 breast
UACC-62 melanoma = system: UACC-62 melanoma
SF-295 CNS = system: SF-295 CNS

Structure (SMILES) | GI50 (M14 melanoma) [µM] | TGI (M14 melanoma) [µM] | GI50 (NCI-H226 lung) [µM] | TGI (NCI-H226 lung) [µM] | GI50 (BT-549 breast) [µM] | TGI (BT-549 breast) [µM] | GI50 (KM12 colon) [µM] | TGI (KM12 colon) [µM] | GI50 (SN12C renal) [µM] | TGI (SN12C renal) [µM] | GI50 (MDA-MB-231 breast) [µM] | TGI (MDA-MB-231 breast) [µM] | GI50 (UACC-62 melanoma) [µM] | TGI (UACC-62 melanoma) [µM] | GI50 (SF-295 CNS) [µM] | TGI (SF-295 CNS) [µM]
O=C(Nc1cccc(C(F)(F)F)c1)c1ccc(NC2=C(Cl)C(=O)N(Cc3ccc(Cl)cc3Cl)C2=O)cc1 | 15.3 | 32.4 | 5.92 | 24 | 2.2 | 5.71 | 14.6 | 31.4 | 17.4 | 32.8 | 12.5 | 27.6 | 13.7 | 26.6 | 13 | 35
O=C(NC[C@H](O)CN1CCc2ccccc2C1)c1cc(NC2COC2)ncn1 | 23 | > 100 | 9.88 | 40.2 | 7.24 | 35.4 | 16.2 | > 100 | 18.5 | > 100 | 16.1 | 46.9 | 21.3 | > 100 | 14.7 | > 100
CCC(C)(C)c1ccc(OCCCCNC(=O)c2ccc3ccccc3c2O)c(C(C)(C)CC)c1 |  | > 100 |  | 44.7 |  | 82.5 |  | > 100 |  | > 100 |  | > 100 |  | 92.4 |  | > 100
O=C(/C=C/c1ccc[nH]1)c1ccc(-n2ccc(C(F)(F)F)n2)cc1 | > 100 | > 100 |  | > 100 | 0.425 | 2.5 | 0.463 | 8.95 | 10.1 | > 100 | > 100 | > 100 | > 100 | > 100 | > 25.8 | > 100
CN(C)CC[C@H](CSc1ccccc1)Nc1ccc(S(=O)(=O)NC(=O)c2ccc(N3CCN(Cc4ccccc4-c4ccc(Cl)cc4)CC3)cc2)cc1[N+](=O)[O-] | 4.17 | 29.8 | 4.59 | 17.4 | 17.3 | > 100 | 3.6 | 23.6 | 3.56 | > 56.7 | 1.55 | 3.5 | 3.51 | 20 | 3.6 | > 100
CCOc1ccc(/C=C2\N=C(c3ccc([N+](=O)[O-])cc3)OC2=O)cc1 |  | > 100 |  | > 100 |  | > 100 |  | > 100 |  | > 100 |  | > 100 |  | > 100 |  | > 100
CC(C)(/C=C(\C#N)C(=O)N1CCC[C@@H](n2nc(-c3ccc(Oc4ccccc4)cc3F)c3c(N)ncnc32)C1)N1CCN(C2COC2)CC1 | 4.82 | 18.8 | 4.3 | 21.1 | 5.42 | 18.6 | 3.34 | 14 | 4.3 | 16.2 | 10.2 | 27.7 | 3.04 | 14.3 | 6.39 | 19.6
O=C(Cc1ccc(F)c(Cl)c1)Nc1cc(C2(C(F)(F)F)CC2)nn1CC1CCCCC1 | 4.3 | > 15 | 4.32 | > 15 | 3.41 | 14.7 | 3.74 | 12.3 | 4.46 | > 15 | 2.82 | 6.68 | 3.37 | 11.5 | 3.62 | > 15
CCOC(=O)Nc1cc2c(c(N)n1)N=C(c1ccccc1)CO2 | 0.166 | 93 | 4.16 | 41.4 | 23.1 | > 100 | 0.0366 | 2.11 | 0.84 | 31.1 | 0.691 | 6.43 | 0.359 | 31.3 | 0.224 | 14.2
O=c1oc2ccc(-c3ccc(F)cc3F)cc2c(=O)n1-c1cccc(C(F)(F)F)c1 | 0.525 | 4.21 | 1.43 | 5.19 | 0.605 | 3.7 | 2.09 | 5.63 | 1 | 10.4 | 2.08 | 7.37 | 0.382 | 2.79 | 1.78 | 4.14
COc1ccc(C(=O)Nc2ccc(O)c(=O)cc2)cc1 |  | > 100 |  | > 100 |  | > 100 |  | > 100 |  | > 100 |  | > 100 |  | > 100 |  | > 100
COc1cc(Cl)cc(-c2nn(-c3cccc(NC(=O)c4ccc(N5CCOCC5)c(C(F)(F)F)c4)c3)cc2-c2ccncc2)c1 | 7.93 | > 100 | 93.4 | > 100 | 89 | > 100 | 5.38 | > 100 | > 100 | > 100 | 2.83 | 32.4 | 9.1 | > 100 | 2.21 | 14.8
CC1CC2CCCC(O)=C2C(=O)O1 (stereo not drawn) |  | > 100 |  | > 100 |  | > 100 |  | > 100 |  | > 100 |  | > 100 |  | > 100 |  | > 100
Cc1nnc(Nc2ccc(NC(=O)Nc3ccc(Cl)cc3)cc2)c2ccccc12 | 1.76 | 3.57 | 3.61 | 15.9 | 2.21 | 5.56 | 1.99 | 4.53 | 2.86 | 9.41 | 2.38 | 5.94 | 1.75 | 3.59 | 2.04 | 4.21
Cc1cc(N[C@@H]2CCC[C@H](Nc3ccnc4cc(Cl)ccc34)C2)nc(N2CCCCCC2)n1 | 1.55 | 3.29 | 2.42 | 6.06 | 1.75 | 3.75 | 2.06 | 4.48 | 1.55 | 3.11 | 1.63 | 3.43 | 1.81 | 3.34 | 1.32 | 2.74
N=c1c2c(-c3ccccc3)c(-c3ccccc3)n(Cc3ccccc3)c2ncn1C1CCC(O)CC1 (stereo not drawn) | 0.894 | 2.38 | 0.517 | 16.8 | 2.55 | 9.85 | 0.327 | 11.1 | 0.389 | 16.4 | 1.29 | 4.65 | 0.534 | 7.06 | 0.0836 | 1.45
